# Source: patent publication US20100286152A1, “N-PHENYL HYDRAZIDES AS MODULATORS OF THE GHRELIN RECEPTOR” (Glaxo Group Limited, priority 2007, published 2010)
# Target: T1, Human GHS-R (ghrelin receptor) (Homo sapiens, UniProt Q92847)
# T1 construct: The full-length gene was transferred into pCDN for expression analysis; expressed in transfected cells; host or cells: U2OS cells transduced with human GHSR BacMam virus
# Experiment: GHSR Agonist BACMAM FLIPR Assay (Method Z)
# Format: cell-based
# Conditions: U2OS cells, maximum asymptote relative to maximum response of hGhrelin at 100 nM
# Experimental: (§1) 24 h prior to assay U2OS cells at confluence 100% were harvested and spun down. The supernatant was removed and the cells resuspended in media (DMEM+10% FBS+1% L-Glutamine). A cell count was performed using the Cedex instrumentation, and the concentration of cells was adjusted using media to give 200K cells per mL (10K cells/50 μL).
# (§2) Human GHSR BACMAM virus was added to the cell suspension at an appropriate % volume (calculated for individual batches of BACMAM virus as viral titres vary). The transduced cell suspension was dispensed into FLIPR 384-well clear bottom plates, 50 μL per well. Cell plates were incubated at 37° C. overnight.
# Master compound plates were prepared in 100% DMSO. 0.6 mM was the top concentration (giving 3 μM final concentration) and they were serially diluted 1 in 4. 1 μL from the master plate was transferred to a daughter plate, to which was added 50 μL of compound dilution (NaCl (145 mM) KCl (5 mM) CaCl2 (2 mM) MgCl2 (1 mM) HEPES (20 mM) D-(+)-Glucose (1 g/l), pluronic acid (0.05%), pH 7.3). This plate was used for the assay. Ghrelin was always prepared in compound dilution buffer containing 0.1% BSA.
# Media was washed from cell plates, using a cell washer (leaving 20 μL of washing buffer (NaCl (145 mM)+KCl (5 mM)+CaCl2 (2 mM)+MgCl2 (1 mM)+HEPES (20 mM)+D-(+)-Glucose (1 g/l)+Probenecid (2.5 mM), pH 7.3). Cells were immediately loaded with loading buffer (washing buffer+pluronic acid (0.02%)+Fluo 4 dye (2 μM), and incubated at 37° C., for 60 min. After a second washing step (same as for the pre-loading, but leaving 30 μL of washing buffer), the plates were placed in a FLuorimetric Imaging Plate Reader (FLIPR, Molecular Devices) where 10 μL of compound, prepared according to method C above, was added to the cells and fluorescence measurements were taken. […] Percentage activation of the compounds was calculated by using the maximum asymptote of it's concentration response curve relative to the maximum response of the hGhrelin at 100 nM concentration.
# T1 sequence (Q92847 whole entry): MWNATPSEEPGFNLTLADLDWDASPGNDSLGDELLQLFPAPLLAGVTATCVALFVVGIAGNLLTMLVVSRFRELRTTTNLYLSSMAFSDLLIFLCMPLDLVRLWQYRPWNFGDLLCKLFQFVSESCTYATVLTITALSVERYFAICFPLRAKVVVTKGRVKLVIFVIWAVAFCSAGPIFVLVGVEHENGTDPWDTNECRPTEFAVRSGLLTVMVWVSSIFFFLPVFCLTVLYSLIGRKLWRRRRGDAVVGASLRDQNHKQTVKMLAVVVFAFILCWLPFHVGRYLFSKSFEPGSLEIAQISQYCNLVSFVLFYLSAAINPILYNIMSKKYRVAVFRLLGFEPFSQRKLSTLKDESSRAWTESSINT
row,percentage activation [%],Structure (SMILES)
1,> 40,"Cc1ccc(C(C(=O)NNc2cc(C(F)(F)F)cc(C(F)(F)F)c2)N2CCN3CCC[C@@H]3C2)cn1 (single isomer, unassigned; diastereoisomer 1) [Compound 92]"
2,> 40,"O=C(NNc1cc(C(F)(F)F)cc(C(F)(F)F)c1)C(c1ccc2c(c1)OCCO2)N1CCN2CCC[C@@H]2C1 (single isomer, unassigned; diastereoisomer 1) [Compound 96]"
3,> 40,"Cc1ncccc1C(C(=O)NNc1cc(C(F)(F)F)cc(C(F)(F)F)c1)N1CCN2CCC[C@@H]2C1 (single isomer, unassigned; diastereoisomer 1) [Compound 94]"

# Target: T1, Human GHS-R (ghrelin receptor)
# Experiment: GHSR Agonist BACMAM FLIPR Assay (Method X or Y)
# Format: cell-based
# Conditions: U2OS cells, maximum asymptote relative to that of the hGhrelin concentration response curve
# Experimental: as §1, §2
# Master compound plates were prepared in 100% DMSO. 3 mM was the top concentration (giving 10 μM final concentration) and they were serially diluted 1 in 4. 1 μL from the master plate was transferred to a daughter plate, to which was added 50 μL of compound dilution (Tyrodes {Elga water+145 mM NaCl+5 mM KCl+20 mM HEPES+10 mM glucose+1 mM MgCl2+1.5 mM CaCl2}. For the agonist assay, the compound buffer also contained 0.1% BSA. This plate was used for the assay. Ghrelin was always prepared in buffer containing 0.1% BSA.
# Master compound plates were prepared in 100% DMSO. 3 mM was the top concentration (giving 10 μM final concentration) and they were serially diluted 1 in 4. 1 μL from the master plate was transferred to a daughter plate, to which was added 50 μL of compound dilution (HBSS {Elga water+137 mM NaCl+5 mM KCl+0.41 mMa KH2PO4(anhyd)+20 mM HEPES+5 mM glucose+0.81 mM MgSO4(anhyd)+1.3 mM CaCl2+4.16 mM NaHCO3}. For the agonist assay, the compound buffer also contained 0.1% BSA. This plate was used for the assay. Ghrelin was always prepared in buffer containing 0.1% BSA.
# Media was aspirated from cell plates using a cell washer (leaving 10 μL of media). Cells were immediately loaded with loading buffer (Tyrodes buffer-(Elga water+145 mM NaCl+5 mM KCl+20 mM HEPES+10 mM glucose+1 mM MgCl2)+1.5 mM CaCl2+0.714 mg/mL Probenecid (predissolved in 1 M NaOH)+0.25 mM brilliant black+2 μM Fluo 4 dye, and incubated at 37.5° C., 5% CO2 for 90 min. The plates were placed in a FLuorimetric Imaging Plate Reader (FLIPR, Molecular Devices) where 10 μL of compound, prepared according to method A above, was added to the cells and fluorescence measurements were taken. Maximum changes in fluorescence were plotted as a percentage of the maximum response elicited by 300 nM hGhrelin and curves fitted using a 4-parameter logistic equation to generate pEC50 values. Intrinsic activity of the compounds was calculated by using the maximum asymptote of it's concentration response curve relative to the maximum asymptote of the hGhrelin concentration response curve.
# Media was aspirated from cell plates using a cell washer (leaving 10 μL of media). Cells were immediately loaded with loading buffer (HBSS (Elga water+137 mM NaCl+5 mM KCl+0.41 mM KH2PO4(anhyd)+20 mM HEPES+5 mM glucose+0.81 mM MgSO4(anhyd))+1.3 mM CaCl2+4.16 mM NaHCO3+0.714 mg/mL Probenecid (predissolved in 1 M NaOH)+0.25 mM brilliant black+2 μM Fluo 4 dye, and incubated at 37.5° C., 5% CO2 for 90 min. The plates were placed in a FLuorimetric Imaging Plate Reader (FLIPR, Molecular Devices) where 10 μL of compound, prepared according to method B above, was added to the cells and fluorescence measurements were taken. Maximum changes in fluorescence were plotted as a percentage of the maximum response elicited by 300 nM hGhrelin and curves fitted using a 4-parameter logistic equation to generate pEC50 values. Intrinsic activity of the compounds was calculated by using the maximum asymptote of it's concentration response curve relative to the maximum asymptote of the hGhrelin concentration response curve.
row,intrinsic activity (IA),Structure (SMILES)
1,0.4,"CN1CCC(C(C(=O)NNc2cc(Cl)cc(Cl)c2)c2cccc3ccccc23)CC1 (single isomer, unassigned; enantiomer 1) [Compound 73, N′-(3,5-dichlorophenyl)-2-(1-methyl-4-piperidinyl)-2-(1-naphthalenyl)-acetohydrazide-enantiomer 1]"
2,0.4,"CN1CCN(C(C(=O)NNc2cc(C(F)(F)F)cc(C(F)(F)F)c2)c2ccc3c(c2)CCO3)CC1 (single isomer, unassigned; enantiomer 1) [Compound 20, N′-[3,5-bis(trifluoromethyl)phenyl]-2-(2,3-dihydro-1-benzofuran-5-yl)-2-(4-methyl-1-piperazinyl)acetohydrazide-enantiomer 1]"
3,0.4,"CN1CCN(C(C(=O)NNc2cc(C(F)(F)F)cc(C(F)(F)F)c2)c2cccc(Cl)c2)CC1.O=CO (racemic) [Compound 45, (±)-formic acid-N′-[3,5-bis(trifluoromethyl)phenyl]-2-(3-chlorophenyl)-2-(4-methyl-1-piperazinyl)acetohydrazide]"
4,0.4,"O=C(NNc1cc(C(F)(F)F)cc(C(F)(F)F)c1)C(c1ccccc1Cl)N1CCN2CCC[C@@H]2C1 (single isomer, unassigned; diastereoisomer 2) [Compound 85]"
5,0.4,"CN1CCN(C(C(=O)NNc2cc(C(F)(F)F)cc(C(F)(F)F)c2)c2ccccc2Cl)CC1 (single isomer, unassigned; enantiomer 1) [Compound 9, N′-[3,5-bis(trifluoromethyl)phenyl]-2-(2-chlorophenyl)-2-(4-methyl-1-piperazinyl)acetohydrazide-enantiomer 1]"
6,0.4,"CN1CCN(C(C(=O)NNc2cc(C(F)(F)F)cc(C(F)(F)F)c2)c2cccc(OC(F)(F)F)c2)CC1 (racemic) [Compound 37, (±)-N′-[3,5-bis(trifluoromethyl)phenyl]-2-(4-methyl-1-piperazinyl)-2-{3-[(trifluoromethyl)oxy]phenyl}acetohydrazide]"
7,0.4,"Cc1cccnc1C(C(=O)NNc1cc(C(F)(F)F)cc(C(F)(F)F)c1)N1CCN(C)CC1 (single isomer, unassigned; enantiomer 2) [Compound 56, N′-[3,5-bis(trifluoromethyl)phenyl]-2-(4-methyl-1-piperazinyl)-2-(3-methyl-2-pyridinyl)acetohydrazide-enantiomer 2]"
8,0.4,"CN1CCN(C(C)(C(=O)NNc2cc(C(F)(F)F)cc(C(F)(F)F)c2)c2ccccn2)CC1 (single isomer, unassigned) [Compound 130, N′-[3,5-bis(trifluoromethyl)phenyl]-2-(4-methyl-1-piperazinyl)-2-(2-pyridinyl)propanohydrazide]"
9,0.4,"CN1CCN(C(C(=O)NNc2cc(C(F)(F)F)cc(C(F)(F)F)c2)c2cccc3c2OC(F)(F)O3)CC1 (racemic) [Compound 46, (±)-N′-[3,5-bis(trifluoromethyl)phenyl]-2-(2,2-difluoro-1,3-benzodioxol-4-yl)-2-(4-methyl-1-piperazinyl)acetohydrazide]"
10,0.4,"O=C(NNc1cc(C(F)(F)F)cc(C(F)(F)F)c1)C(c1cccnc1)N1CCN2CCC[C@H]2C1 (single isomer, unassigned) [Compound 126]"
11,0.4,"O=C(NNc1cc(C(F)(F)F)cc(C(F)(F)F)c1)C(c1ccccc1Cl)N1CCN2CCC[C@H]2C1 (single isomer, unassigned; diastereoisomer 2) [Compound 83]"
12,0.4,"CN1CCN(C(C(=O)NNc2cc(C(F)(F)F)cc(C(F)(F)F)c2)c2cncnc2)CC1 (single isomer, unassigned; enantiomer 1) [Compound 78, N′-[3,5-bis(trifluoromethyl)phenyl]-2-(4-methyl-1-piperazinyl)-2-(5-pyrimidinyl)acetohydrazide-enantiomer 1]"
13,0.4,"Cc1ccc(C(C(=O)NNc2cc(C(F)(F)F)cc(C(F)(F)F)c2)N2CCN3CCC[C@@H]3C2)c(C)n1 (single isomer, unassigned; diastereoisomer 1) [Compound 80]"
14,0.4,"Cc1cccnc1C(C(=O)NNc1cc(C(F)(F)F)cc(C(F)(F)F)c1)N1CCN(C)CC1 (single isomer, unassigned; enantiomer 1) [Compound 55, N′-[3,5-bis(trifluoromethyl)phenyl]-2-(4-methyl-1-piperazinyl)-2-(3-methyl-2-pyridinyl)acetohydrazide-enantiomer 1]"
